According to article PMC12029069, “Synthesis and Evaluation of Antitumor and Anti-Angiogenesis Activity of Pyrone- or Pyridone-Embedded Analogs of Cortistatin A” (Marine Drugs, 2025):
pIC50: −log10 of the molar value. Like-named read-outs stand apart in the source and are kept apart here. Marks after values point to notes of the source that are not given here.

Columns and labels:
[1] = system: human epidermoid carcinoma KB3-1 cells; experiment: Antiproliferative activity against KB3-1 cancer cells (WST-8, 72 h); format: cell-based
Experimental: KB3-1 cells were cultured in RPMI-1640 medium supplemented with 10% heat-inactivated fetal bovine serum and kanamycin (50 μg/mL). Cells were plated into 96-well microplates at 2 × 10^3 cells/100 μL assay medium/well, and various concentrations of test compounds were added to each well as a 5% DMSO/EtOH or EtOH solution (1 µL). The plates were incubated at 37 °C in a humidified atmosphere of 5% CO2 for 72 h, and cell proliferation was determined by WST-8 colorimetric assay as above, and the averaged IC50 values of the triplicate experiment are shown in Table 1.

[2] = system: HUVECs; experiment: Antiproliferative activity against HUVECs (WST-8, 72 h); format: cell-based, human; conditions: for pIC50: 72 h, WST-8, average of triplicate; for S.I. (selective index: IC50 against KB3-1 cells/IC50 against HUVECs): KB3-1 over HUVECs
Experimental: HUVECs (5 × 10^5 cells/vial) were purchased from Kurabo Inc. and grown in HuMedia-EG2 medium with growth supplements (Kurabo, Osaka, Japan). HUVECs in the culture medium were plated into each well of 96-well plates (2 × 10^3 cells/well/100 µL). After 24 h, the serially diluted compounds as a 5% DMSO/EtOH or EtOH solution (1 µL) were added, and then the plates were incubated for an additional 72 h in a humidified atmosphere of 5% CO2 at 37 °C. The cell proliferation was detected by WST-8 colorimetric reagent (Nacalai Tesque, Inc., Kyoto, Japan). The IC50 value was determined by linear interpolation from the growth inhibition curve, and the averaged IC50 values of the triplicate experiment are shown in Table 1.

[3] = system: human epidermoid carcinoma KB3-1 cells; conditions: cited from earlier work
[4] = system: HUVECs; conditions: cited from earlier work; for S.I. (selective index: IC50 against KB3-1 cells/IC50 against HUVECs): KB3-1 over HUVECs
[5] = system: CDK8; conditions: ref [37]; cited from earlier work
[6] = system: new blood vessels in the Matrigel plug induced by bFGF; experiment: In vivo Matrigel plug assay (bFGF-induced angiogenesis, hemoglobin content); parameters: species or system mice; conditions: 0.3 mg/kg oral, every other day (5 times), day 10, mean ± SD
Experimental: All animal procedures were approved by the Committee on Animal Experimentation of Osaka University (Approval number: DouYaku 24-8-1). The measurements of in vivo angiogenesis using Matrigel plugs were performed as described previously. An aliquot (250 µL) of Matrigel containing 200 ng/mL of bFGF and 100 U/mL of heparin was injected subcutaneously into the ventral side of female ddY mice (6 weeks old, N = 4, Japan SLC, Inc., Shizuoka, Japan). Then, analog 19 was orally administered on every other day (total 5 times: day 1, 3, 5, 7, and 9) as a suspension in 1% sodium carboxymethyl cellulose (CMC-Na). At day 10, the Matrigel plugs were photographed and removed. The levels of new vessels were quantified by measuring the hemoglobin of the Matrigel plug (µg hemoglobin/mg Matrigel) with the Drabkin reagent Kit.

[7] = system: Murine sarcoma S180 cells; experiment: In vivo antitumor effect in mice inoculated with sarcoma S180 cells; conditions: every other day for 14 days, S180 s.c. in ddY mice
From the text: Murine sarcoma S180 cells (1 × 10^6 cells/body) were implanted subcutaneously into the right ventral flank of female ddY mice (6 weeks old). After one week from implantation, analog 19 was orally administered on every other day for 14 days (total 7 times) as a suspension in 1% CMC-Na. Then, the tumor was isolated and weighed to calculate the inhibition ratio. The control group and the group treated with the testing compound consisted of six mice each in this study.

[8] = Body weight of mice during the Matrigel plug assay (acute toxicity); format: in vivo; conditions: mean ± SD
Experimental: The body weight of mice of the control group (bFGF (+) or (−)) and the groups treated with the testing compound (0.1, 0.3, and 1 mg/kg) at day 1 and day 9 were measured. The mean activities of aspartate aminotransferase (AST) and alanine aminotransferase (ALT) in mouse serum at day 10 of control group and the 1 mg/kg treated group were measured using the LabAssay^TM AST or ALT kit (FUJIFILM Wako Pure Chemical Co., Osaka, Japan), respectively.

[9] = Hepatic toxicity: AST and ALT activities in mouse serum; format: in vivo, mice; conditions: 1 mg/kg oral treatment group, day 9
Experimental: The body weight of mice of the control group (bFGF (+) or (−)) and the groups treated with the testing compound (0.1, 0.3, and 1 mg/kg) at day 1 and day 9 were measured. […]

[10] = Homo sapiens, KB 3-1, WST-8, average of triplicate

With Cc1oc(=O)c2c(c1CO)O[C@@H]1C(=C2)CC[C@]2(C)[C@@H](c3ccc4ccncc4c3)CC[C@@H]12 [Compound 11, (3S,3aR,11aS,11bR)-10-(Hydroxymethyl)-3-(isoquinolin-7-yl)-3a,9-dimethyl-1,2,3,3a,4,5,11a,11b-octahydro-7H-cyclopenta[h]pyrano[4,3-b]chromen-7-one] the pIC50 [1, 10] was 5.00, the pIC50 ([2]; Homo sapiens, HUVEC) was 7.70 and the “S.I. (selective index: IC50 against KB3-1 cells/IC50 against HUVECs)” value [2] was 500.

In the case of CC(=O)NCc1c2c(c(=O)n(C)c1C)C=C1CC[C@]3(C)[C@@H](c4ccc5ccncc5c4)CC[C@H]3[C@@H]1O2 [Compound 27, N-(((3S,3aR,11aS,11bR)-3-(Isoquinolin-7-yl)-3a,8,9-trimethyl-7-oxo-1,2,3,3a,4,5,7,8,11a,11b-decahydrocyclopenta[7, 8]chromeno[3,2-c]pyridin-10-yl)methyl)acetamide], the pIC50 ([1]; WST-8, average of triplicate) was 4.87, the pIC50 [2] was 8.00 and the “S.I. (selective index: IC50 against KB3-1 cells/IC50 against HUVECs)” value [2] was 1340.

In the case of C[C@]12CCC3=CC4=C(CCCC4=O)O[C@H]3[C@@H]1CC[C@@H]2c1ccc2ccncc2c1 [Compound 2], the pIC50 ([3]; reported value ref [21]) is listed as 4.98, the “S.I. (selective index: IC50 against KB3-1 cells/IC50 against HUVECs)” value ([4]; ref [21]) is listed as 300 ^c and the pIC50 ([4]; reported value ref [21]) is listed as 7.46.

In the case of CC(=O)NCC1CC(=O)C2=C(C1)O[C@@H]1C(=C2)CC[C@]2(C)[C@@H](c3ccc4ccncc4c3)CC[C@@H]12 (stereo partly shown) [Compound 3], the pIC50 ([3]; reported value ref [21]) is given as 5.09, the “S.I. (selective index: IC50 against KB3-1 cells/IC50 against HUVECs)” value ([4]; ref [21]) is given as 3150 ^c and the pIC50 ([4]; reported value ref [21]) is given as 8.59.

For Cortistatin A [Compound 1], the pIC50 ([3]; reported value ref [8]) is given as 5.15, the “S.I. (selective index: IC50 against KB3-1 cells/IC50 against HUVECs)” value ([4]; ref [8]) is given as 3900 ^b and the pIC50 ([4]; reported value ref [8]) is given as 8.74.

For CN(C)[C@H]1CC[C@@]2(C)[C@@H](CC[C@@H]3[C@@H]2CC[C@]2(C)[C@@H](c4ccc5ccncc5c4)CC[C@@H]32)C1 [Compound 28, reference compound], the pIC50 [1, 10] was 5.32, the pIC50 ([2]; Homo sapiens, HUVEC) was 6.25 and the “S.I. (selective index: IC50 against KB3-1 cells/IC50 against HUVECs)” value [2] was 8.6. For the same compound, the pIC50 [5] was 7.62.

For Cn1ccc2c(c1=O)C=C1CC[C@]3(C)[C@@H](c4ccc5ccncc5c4)CC[C@H]3[C@@H]1O2 [Compound 15, (3S,3aR,11aS,11bR)-3-(Isoquinolin-7-yl)-3a,8-dimethyl-2,3,3a,4,5,8,11a,11b-octahydrocyclopenta[7, 8]chromeno[3,2-c]pyridin-7(1H)-one], the pIC50 [1, 10] was 5.07, the pIC50 ([2]; Homo sapiens, HUVEC) was 8.52 and the “S.I. (selective index: IC50 against KB3-1 cells/IC50 against HUVECs)” value [2] was 2870. For the same compound, the “fold potency over 13 against HUVECs” value ([2]; relative to analog 13) was 3.3 fold.

In the case of C[C@]12CCC3=Cc4c(cc[nH]c4=O)O[C@H]3[C@@H]1CC[C@@H]2c1ccc2ccncc2c1 [Compound 13, (3S,3aR,11aS,11bR)-3-(Isoquinolin-7-yl)-3a-methyl-2,3,3a,4,5,8,11a,11b-octahydrocyclopenta[7, 8]chromeno[3,2-c]pyridin-7(1H)-one], the pIC50 [1, 10] was 4.96, the pIC50 ([2]; Homo sapiens, HUVEC) was 8.00 and the “S.I. (selective index: IC50 against KB3-1 cells/IC50 against HUVECs)” value [2] was 1100. For the same compound, the “fold higher potency than 7 against HUVECs” value ([2]; relative to analog 7) was 9 fold.

With Cn1cc(CO)c2c(c1=O)C=C1CC[C@]3(C)[C@@H](c4ccc5ccncc5c4)CC[C@H]3[C@@H]1O2 [Compound 19, (3S,3aR,11aS,11bR)-10-(Hydroxymethyl)-3-(isoquinolin-7-yl)-3a,8-dimethyl-2,3,3a,4,5,8,11a,11b-octahydrocyclopenta[7, 8]chromeno[3,2-c]pyridin-7(1H)-one] the “Hb Content (hemoglobin µg/isolated Matrigel mg)” value [6] was 2.42 ± 0.79 µg/mg, the “tumor growth inhibition, reduction compared to the control group” value ([7]; 0.1 mg/kg oral) was ~ 75% and the tumor weight reduction ([7]; 1 mg/kg oral) was “more than 85%”. For the same compound, the “Body Weight Day 1” value ([8]; 0.1 mg/kg oral) was 25.70 ± 0.58 g, the “Body Weight Day 9” value ([8]; 0.1 mg/kg oral) was 26.12 ± 0.58 g and the “Body Weight Day 1” value ([8]; 0.3 mg/kg oral) was 25.60 ± 0.64 g. The “Body Weight Day 9” value ([8]; 0.3 mg/kg oral) was 26.14 ± 0.62 g, the “Body Weight Day 1” value ([8]; 1.0 mg/kg oral) was 26.30 ± 0.41 g and the pIC50 ([1]; WST-8, average of triplicate) was 5.19. For the same compound, the pIC50 [2] was 9.00, the “S.I. (selective index: IC50 against KB3-1 cells/IC50 against HUVECs)” value [2] was 6400 and the “ALT (alanine aminotransferase activity)” value [9] was 48.4 ± 3.3 IU/L. The “AST (aspartate aminotransferase activity)” value [9] was 57.8 ± 4.5 IU/L.

In the case of Cc1cc2c(c(=O)o1)C=C1CC[C@]3(C)[C@@H](c4ccc5ccncc5c4)CC[C@H]3[C@@H]1O2 [Compound 7, (3S,3aR,11aS,11bR)-3-(Isoquinolin-7-yl)-3a,9-dimethyl-1,2,3,3a,4,5,11a,11b-octahydro-7H-cyclopenta[h]pyrano[4,3-b]chromen-7-one], the pIC50 [1, 10] was 4.20, the pIC50 ([2]; Homo sapiens, HUVEC) was 7.05 and the “S.I. (selective index: IC50 against KB3-1 cells/IC50 against HUVECs)” value [2] was 700.
